Target: Aurora kinase-1 (TbAUK1) (Trypanosoma brucei, UniProt Q384J7)
Test: in vitro kinase assay of immunoprecipitated kinase
Assay type: biochemical

CCS(=O)(=O)Nc1ccc2c(c1)/C(=C(/Nc1ccc(CN3CCCCC3)cc1)c1ccccc1)C(=O)N2 [Hesperadin]
IC50: 0.04 µM

Source: publication PMC2697958 (Molecular microbiology, 2009)
